Patent US20230263782A1, “ORAL FORMULATIONS AND USES THEREOF” (INVENTISBIO CO., LTD., priority 2020, published 2023)
Values after ≈ are worked out from the molar mass of the structure shown. Where a name gives a salt, the structure may show the parent alone. Read-outs that look alike come from different tables or passages of the source.

Tests used:
ER = biological target: T1, ER (Homo sapiens, UniProt P03372); details: clinical samples, intramuscular injection monthly; cited from earlier work
T1 sequence (P03372 1-595): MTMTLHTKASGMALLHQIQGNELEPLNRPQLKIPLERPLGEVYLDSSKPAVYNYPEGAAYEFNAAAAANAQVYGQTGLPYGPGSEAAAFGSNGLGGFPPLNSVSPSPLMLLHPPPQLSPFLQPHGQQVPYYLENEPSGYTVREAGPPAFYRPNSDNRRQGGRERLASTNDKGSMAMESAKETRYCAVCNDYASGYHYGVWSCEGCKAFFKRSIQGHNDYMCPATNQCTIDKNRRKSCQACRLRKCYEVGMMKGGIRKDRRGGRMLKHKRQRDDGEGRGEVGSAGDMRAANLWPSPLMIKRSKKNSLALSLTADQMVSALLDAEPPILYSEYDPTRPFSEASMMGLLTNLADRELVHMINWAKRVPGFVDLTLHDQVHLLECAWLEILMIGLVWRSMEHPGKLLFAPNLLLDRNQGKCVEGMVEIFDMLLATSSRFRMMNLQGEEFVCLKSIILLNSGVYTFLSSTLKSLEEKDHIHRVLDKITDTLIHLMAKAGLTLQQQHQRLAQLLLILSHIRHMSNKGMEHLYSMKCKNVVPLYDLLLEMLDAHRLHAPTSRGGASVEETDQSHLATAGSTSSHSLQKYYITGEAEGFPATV

[1] = Dynamic moisture sorption analysis (DVS), XRPD before and after; format: physicochemical; details: FIG. 5A
Description: Dynamic moisture sorption analysis (DVS): DVS was determined using IGAsorp (Hiden Isochema, UK). The sample was tested at a targeted RH (relative humidity) of 10 to 90% full cycle in step mode. The analysis was performed in 10% RH increments.

ER+ breast cancer cells = details: as discussed in WO2017/136688; cited from earlier work
[2] = Solid stability test at 40° C./75% RH for 8 days (HPLC, XRPD); format: physicochemical; details: for Solid stability: 40° C./75% RH for 8 days, HPLC and XRPD; for Purity at 8 days / Purity at 0 day: HPLC; for Purity at 8 days: after 40° C./75% RH for 8 days; for Purity at 0 day: start of 40° C./75% RH storage
Description: HPLC ANALYSIS: a representative HPLC method is shown below, which can be used, for example, to analyze the purity, solubility, and stability of the salts herein.
For stability test: About 20 mg of Compound FA, L-lysine salt and meglumine salt (Form I) were weighed into vials, and put at the condition of 40° C./75% RH for 8 days. At 0 and 8 days, the solid sample was dissolved using acetonitrile/water (1/1) to make a solution with the concentration of 0.2 mg/mL. Sample solutions were analyzed by HPLC and solid samples were examined by XRPD.

[3] = Solubility test in pH 1.2 or pH 6.8 buffer (saturated solutions, HPLC; remaining solids by XRPD); format: physicochemical; details: for Stability in buffer solution (HPLC): pH 1.2 buffer solution; for solubility at 30 min / Solubility at 24 h: room temperature; for XRPD patterns at 24 h: remaining solid
Description: For solubility test: About 20 mg of Compound FA, L-lysine salt and meglumine salt (Form I) were weighed into vials, added 3 mL of pH1.2 or pH 6.8 buffer to make saturated solutions. All suspensions were kept shaking with 200 rpm at room temperature for up to 24 hours. […] At 24 hours, remaining solids were collected and determined by XRPD.

[4] = Solubility in water (statement); format: physicochemical
[5] = compared with fulvestrant, GDC-0810 and AZD9496; WO2017/136688; cited from earlier work
[6] = Physical treatment (grinding) of Form I; format: physicochemical; details: grinded for 2 min and 5 min
Description: Physical treatment of Form I: Form I of meglumine salt was grinded for 2 min and 5 min. After grinding, the crystallinity declined, but the crystal form was still Form I.

[7] = Solid stability test of Form I at 25° C./92.5% RH for 10 days (XRPD); format: physicochemical
Description: Solid stability test of Form I at 92.5% RH for 10 days: About 20 mg of meglumine salt Form I was put into the condition of 25° C./92.5% RH for 10 days. At 10 days, the sample was analyzed by XRPD.

[8] = Meglumine salt form interconversion study (slurry in IPA or water, XRPD); format: physicochemical; details: Water
Description: Interconversion study: Interconversion studies were carried out by mixing the same amount of different form solids in IPA or water, respectively. Suspensions were kept stirring at room temperature and 60° C. for several days, during which suspensions were filtrated and analyzed by XRPD.

[9] = pH 1.2 buffer, calculated with the sum of impurities and major peak area

Solid stability [2]	Purity at 8 days [2] [Area %]	Purity at 0 day [2] [Area %]	Stability in buffer solution (HPLC) [3]	Solubility at 24 h [3, 9] [µg/mL]	Solubility at 24 h ([3]; pH 6.8 buffer) [µg/mL]	XRPD patterns at 24 h ([3]; pH 1.2 buffer)	XRPD patterns at 24 h ([3]; pH 6.8 buffer)	SMILES	also measured
–	–	–	–	–	–	–	–	C[C@]12CC[C@@H]3c4ccc(O)cc4C[C@@H](CCCCCCCCC[S+]([O-])CCCC(F)(F)C(F)(F)F)[C@H]3[C@@H]1CC[C@@H]2O (some centres unmarked) [fulvestrant]	ER degradation (ER): ~50%
physically and chemically stable	96.31	98.02	unstable	267 (≈ 562 µM)	3 (≈ 6.31 µM)	Low crystallinity	Low crystallinity	C[C@@H]1Cc2c([nH]c3ccccc23)[C@@H](c2c(Cl)cc(/C=C/C(=O)O)cc2Cl)N1CC(C)(C)F [Compound FA, (E)-3-(3,5-dichloro-4-((1R,3R)-2-(2-fluoro-2-methylpropyl)-3-methyl-2,3,4,9-tetrahydro-1H-pyrido[3,4-b]indol-1-yl)phenyl)acrylic acid]	Solid form before and after DVS studies (XRPD) [1]: did not change; growth of ER+ breast cancer cells (ER+ breast cancer cells): inhibited the growth of ER+ breast cancer cells; solubility at 30 min ([3]; pH 1.2 buffer, pH 1.2, simulated gastric fluid, thermodynamic from solid, pH 1.2 buffer, calculated with the sum of impurities and major peak area, read-out: Solubility at 30 min): 571 µg/mL (≈ 1200 µM); solubility at 30 min ([3]; pH 6.8 buffer): 14 µg/mL (≈ 29.4 µM); Solubility in water [4]: practically insoluble in water; human hepatocyte clearance [5]: better human hepatocyte clearance
physically and chemically stable	99.66	99.68	unstable	1612	17	No change	Low crystallinity	C[C@@H]1Cc2c([nH]c3ccccc23)[C@@H](c2c(Cl)cc(/C=C/C(=O)O)cc2Cl)N1CC(C)(C)F [Meglumine salt, meglumine (E)-3-(3,5-dichloro-4-((1R,3R)-2-(2-fluoro-2-methylpropyl)-3-methyl-2,3,4,9-tetrahydro-1H-pyrido[3,4-b]indol-1-yl)phenyl acrylate]	Crystal form after grinding [6]: still Form I; Crystal form after storage (XRPD) [7]: remained unchanged; Final crystal form ([8]; 25° C.): Dihydrate; Final crystal form ([8]; 60° C.): Form I; solubility at 30 min [3, 9]: 296 µg/mL; solubility at 30 min ([3]; pH 6.8 buffer, pH 6.8, aqueous buffer, thermodynamic from solid, pH 6.8 buffer, read-out: Solubility at 30 min): 20 µg/mL
